Data taken from US20120094998A1, “Oligomer-Protein Tyrosine Kinase Inhibitor Conjugates” (Nektar Therapeutics, priority 2009, published 2012).
Converted amounts (≈) assume the structure as drawn.

Assays:
[1] = Thermodynamic solubility; format: physicochemical; conditions: aqueous buffer, thermodynamic from solid; phosphate buffered saline, pH 7.4; ambient temperature overnight
Description: Test compound (2.5 mg of solid; n=1) is weighed in a clear glass vial and buffer (0.5 mL) is added (phosphate buffered saline, pH 7.4). The solution is agitated at ambient temperature overnight using a vial roller system. […] Duplicate aliquots (50 μL) are sampled from the filtrate and diluted with one volume of 0.1 N hydrochloric acid and methanol (1:1 v/v) before analysis by HPLC-UV. […] The concentration of test compound in the filtrate is quantified relative to the concentration standard.
Analysis is performed using a gradient HPLC-UV system with a total cycle time of six minutes.

[2] = Caco-2 permeability (bi-directional; pH 7.4/pH 7.4); format: in vitro ADME; conditions: human; for Papp A→B at 120 min, 10 μM: Caco-2, pH 7.4, read-out: Permeability (cm^2/s × 10^6); for efflux ratio at 120 min, 10 μM: Caco-2, ratio of B-A and A-B permeabilities
Description: Caco-2 cells are used as an in vitro model of the human intestinal epithelium and permit assessment of the intestinal permeability of potential drugs. Test compound is added to either the apical or basolateral side of a confluent monolayer of Caco-2 cells and permeability is measured by monitoring the appearance of the test compound on the opposite side of the membrane using LC-MS/MS. Apparent permeability (Papp) coefficients, efflux ratio for the test compound and recovery values were determined.
To measure the permeability of test compound in the apical to basolateral (A-B) and basolateral to apical (B-A) direction across Caco-2 cells.
Caco-2 cells obtained from the ATCC are used between passage numbers 40-60. Cells are seeded on to Millipore Multiscreen Caco-2 plates at 1×10^5 cells/cm^2. They are cultured for 20 days in DMEM and media is changed every two or three days. On day 20 the permeability study is performed.
On day 20, the monolayers are prepared by rinsing both basolateral and apical surfaces twice with HBSS at 37° C. Cells are then incubated with HBSS in both apical and basolateral compartments for 40 min to stabilize physiological parameters. HBSS is then removed from the apical compartment and replaced with test compound dosing solutions. […] The fluorescent integrity marker lucifer yellow is also included in the dosing solution. Analytical standards are made from dosing solutions. The apical compartment inserts are then placed into ‘companion’ plates containing fresh HBSS. For basolateral to apical (B-A) permeability determination the experiment is initiated by replacing buffer in the inserts then placing them in companion plates containing dosing solutions. At 120 minutes the companion plate is removed and apical and basolateral samples diluted for analysis by LC-MS/MS. Test compound permeability was assessed in duplicate. On each plate, compounds of known permeability characteristics were run as controls.
Test and control compounds were quantified by LC-MS/MS cassette analysis using a 5-point calibration with appropriate dilution of the samples. Cyprotex generic analytical conditions were used. The starting concentration (C0) and experimental recovery were calculated from both apical and basolateral compartment concentrations.
The integrity of the monolayers throughout the experiment was checked by monitoring lucifer yellow permeation using fluorimetric analysis. Lucifer yellow permeation is low if monolayers have not been damaged. […] If lucifer yellow Papp values are above QC limits in both replicate wells for a test compound, the compound was re-tested.
Data Analysis: The permeability coefficient for each compound (Papp) is calculated from the following equation: […]
wherein dQ/dt is the rate of permeation of the drug across the cells, C0 is the donor compartment concentration at time zero and A is the area of the cell monolayer. C0 is obtained from analysis of donor and receiver compartments at the end of the incubation period. It is assumed that all of the test compound measured after 120 minutes incubation was initially present in the donor compartment at 0 minutes. An efflux ratio (ER) is derived as follows:
Talinolol (a known P-gp substrate) is also included as a control compound to assess whether functional P-gp is present in the Caco-2 cell monolayer.

[3] = molecular target: ABL (Homo sapiens, UniProt P00519); assay: Off-chip mobility-shift kinase assay (Caliper LABCHIP), ABL; conditions: for ABL AVG % Activity at 1.0E−06: concentration 1.0E−06; for ABL AVG % Activity at 1.0E−06 / ABL AVG % Activity at 1.0E−07 / ABL AVG % Activity at 1.0E−08 / ABL AVG % Activity at 1.0E−09 / ABL AVG % Activity at 1.0E−10 / ABL AVG % Activity at 3.0E−06 / ABL AVG % Activity at 3.0E−07 / ABL AVG % Activity at 3.0E−08 / ABL AVG % Activity at 3.0E−09 / ABL AVG % Activity at 3.0E−10: imatinib-corresponding compounds; for ABL AVG % Activity at 1.0E−07: concentration 1.0E−07; for ABL AVG % Activity at 1.0E−08: concentration 1.0E−08; for ABL AVG % Activity at 1.0E−09: concentration 1.0E−09; for ABL AVG % Activity at 1.0E−10: concentration 1.0E−10; for ABL AVG % Activity at 3.0E−06: concentration 3.0E−06; for ABL AVG % Activity at 3.0E−07: concentration 3.0E−07; for ABL AVG % Activity at 3.0E−08: concentration 3.0E−08; for ABL AVG % Activity at 3.0E−09: concentration 3.0E−09; for ABL AVG % Activity at 3.0E−10: concentration 3.0E−10
Chain of ABL (P00519 whole entry): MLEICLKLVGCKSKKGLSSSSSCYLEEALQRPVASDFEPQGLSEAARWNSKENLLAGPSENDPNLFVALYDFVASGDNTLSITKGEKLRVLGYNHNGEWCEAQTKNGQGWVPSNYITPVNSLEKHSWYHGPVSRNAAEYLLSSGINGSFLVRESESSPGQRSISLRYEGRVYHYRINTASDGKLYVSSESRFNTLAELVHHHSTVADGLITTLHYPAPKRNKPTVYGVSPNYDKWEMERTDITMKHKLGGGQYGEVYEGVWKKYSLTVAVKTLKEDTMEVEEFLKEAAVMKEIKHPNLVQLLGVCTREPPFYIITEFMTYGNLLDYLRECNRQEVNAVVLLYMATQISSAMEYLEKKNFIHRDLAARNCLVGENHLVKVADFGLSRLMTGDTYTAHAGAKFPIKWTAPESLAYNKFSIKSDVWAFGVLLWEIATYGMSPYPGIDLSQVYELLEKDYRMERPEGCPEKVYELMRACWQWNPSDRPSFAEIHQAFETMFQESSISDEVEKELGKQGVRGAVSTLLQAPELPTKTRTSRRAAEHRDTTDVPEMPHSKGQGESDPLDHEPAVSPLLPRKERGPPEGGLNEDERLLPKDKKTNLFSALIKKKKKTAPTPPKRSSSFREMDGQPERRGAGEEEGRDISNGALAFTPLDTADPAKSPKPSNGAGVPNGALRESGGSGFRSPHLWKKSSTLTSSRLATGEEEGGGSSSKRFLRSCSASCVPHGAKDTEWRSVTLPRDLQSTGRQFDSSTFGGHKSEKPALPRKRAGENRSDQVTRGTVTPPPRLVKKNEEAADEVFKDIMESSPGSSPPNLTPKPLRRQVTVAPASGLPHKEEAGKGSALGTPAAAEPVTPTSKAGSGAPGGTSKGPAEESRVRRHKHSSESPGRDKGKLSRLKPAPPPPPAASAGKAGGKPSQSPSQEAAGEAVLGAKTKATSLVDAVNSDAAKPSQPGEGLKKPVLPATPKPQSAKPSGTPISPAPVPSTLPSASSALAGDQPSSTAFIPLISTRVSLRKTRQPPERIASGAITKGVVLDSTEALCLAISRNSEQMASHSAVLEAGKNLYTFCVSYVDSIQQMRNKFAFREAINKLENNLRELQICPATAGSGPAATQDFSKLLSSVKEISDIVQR

[4] = molecular target: PDGFRβ (Homo sapiens, UniProt P09619); assay: Off-chip mobility-shift kinase assay (Caliper LABCHIP), PDGFR; conditions: for PDGFR AVG % Activity at 1.0E−06: concentration 1.0E−06; for PDGFR AVG % Activity at 1.0E−07: concentration 1.0E−07; for PDGFR AVG % Activity at 1.0E−08: concentration 1.0E−08; for PDGFR AVG % Activity at 1.0E−09: concentration 1.0E−09; for PDGFR AVG % Activity at 1.0E−10: concentration 1.0E−10; for PDGFR AVG % Activity at 3.0E−06: concentration 3.0E−06; for PDGFR AVG % Activity at 3.0E−07: concentration 3.0E−07; for PDGFR AVG % Activity at 3.0E−08: concentration 3.0E−08; for PDGFR AVG % Activity at 3.0E−09: concentration 3.0E−09; for PDGFR AVG % Activity at 3.0E−10: concentration 3.0E−10
Chain of PDGFRβ (P09619 33-1106): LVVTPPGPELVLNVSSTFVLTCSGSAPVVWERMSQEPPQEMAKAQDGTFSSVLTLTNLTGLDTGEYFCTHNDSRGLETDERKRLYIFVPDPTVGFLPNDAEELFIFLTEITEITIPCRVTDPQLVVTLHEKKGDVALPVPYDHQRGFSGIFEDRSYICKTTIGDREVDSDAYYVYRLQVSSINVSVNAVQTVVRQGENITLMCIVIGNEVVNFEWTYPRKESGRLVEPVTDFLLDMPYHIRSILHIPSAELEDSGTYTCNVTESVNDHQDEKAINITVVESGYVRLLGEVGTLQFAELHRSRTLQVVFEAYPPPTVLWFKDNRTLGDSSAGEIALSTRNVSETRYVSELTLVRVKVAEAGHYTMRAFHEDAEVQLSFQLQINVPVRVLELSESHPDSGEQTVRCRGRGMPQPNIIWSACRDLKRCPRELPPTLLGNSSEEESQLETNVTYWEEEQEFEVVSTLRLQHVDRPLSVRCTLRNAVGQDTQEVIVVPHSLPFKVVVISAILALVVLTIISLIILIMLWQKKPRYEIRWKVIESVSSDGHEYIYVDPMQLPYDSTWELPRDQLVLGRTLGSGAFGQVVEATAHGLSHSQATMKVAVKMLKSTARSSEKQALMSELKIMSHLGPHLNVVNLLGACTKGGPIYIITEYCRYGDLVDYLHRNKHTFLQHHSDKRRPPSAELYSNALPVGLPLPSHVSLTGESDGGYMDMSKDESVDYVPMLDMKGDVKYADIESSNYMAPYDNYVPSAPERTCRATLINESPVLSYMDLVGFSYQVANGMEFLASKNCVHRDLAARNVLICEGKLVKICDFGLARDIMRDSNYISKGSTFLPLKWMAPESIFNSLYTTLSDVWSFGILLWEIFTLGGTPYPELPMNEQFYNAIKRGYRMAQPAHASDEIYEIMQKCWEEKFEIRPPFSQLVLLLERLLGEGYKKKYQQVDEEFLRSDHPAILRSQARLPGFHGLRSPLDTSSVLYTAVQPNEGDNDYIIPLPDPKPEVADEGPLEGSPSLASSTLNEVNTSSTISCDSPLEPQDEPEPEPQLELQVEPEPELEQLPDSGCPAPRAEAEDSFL

[5] = molecular target: cKIT (Homo sapiens, UniProt P10721); assay: Off-chip mobility-shift kinase assay (Caliper LABCHIP), C-kit; conditions: for C-kit AVG % Activity at 1.0E−05: concentration 1.0E−05; for C-kit AVG % Activity at 1.0E−06: concentration 1.0E−06; for C-kit AVG % Activity at 1.0E−07: concentration 1.0E−07; for C-kit AVG % Activity at 1.0E−08: concentration 1.0E−08; for C-kit AVG % Activity at 3.0E−05: concentration 3.0E−05; for C-kit AVG % Activity at 3.0E−06: concentration 3.0E−06; for C-kit AVG % Activity at 3.0E−07: concentration 3.0E−07; for C-kit AVG % Activity at 3.0E−08: concentration 3.0E−08; for C-kit AVG % Activity at 3.0E−09: concentration 3.0E−09
Chain of cKIT (P10721 26-976): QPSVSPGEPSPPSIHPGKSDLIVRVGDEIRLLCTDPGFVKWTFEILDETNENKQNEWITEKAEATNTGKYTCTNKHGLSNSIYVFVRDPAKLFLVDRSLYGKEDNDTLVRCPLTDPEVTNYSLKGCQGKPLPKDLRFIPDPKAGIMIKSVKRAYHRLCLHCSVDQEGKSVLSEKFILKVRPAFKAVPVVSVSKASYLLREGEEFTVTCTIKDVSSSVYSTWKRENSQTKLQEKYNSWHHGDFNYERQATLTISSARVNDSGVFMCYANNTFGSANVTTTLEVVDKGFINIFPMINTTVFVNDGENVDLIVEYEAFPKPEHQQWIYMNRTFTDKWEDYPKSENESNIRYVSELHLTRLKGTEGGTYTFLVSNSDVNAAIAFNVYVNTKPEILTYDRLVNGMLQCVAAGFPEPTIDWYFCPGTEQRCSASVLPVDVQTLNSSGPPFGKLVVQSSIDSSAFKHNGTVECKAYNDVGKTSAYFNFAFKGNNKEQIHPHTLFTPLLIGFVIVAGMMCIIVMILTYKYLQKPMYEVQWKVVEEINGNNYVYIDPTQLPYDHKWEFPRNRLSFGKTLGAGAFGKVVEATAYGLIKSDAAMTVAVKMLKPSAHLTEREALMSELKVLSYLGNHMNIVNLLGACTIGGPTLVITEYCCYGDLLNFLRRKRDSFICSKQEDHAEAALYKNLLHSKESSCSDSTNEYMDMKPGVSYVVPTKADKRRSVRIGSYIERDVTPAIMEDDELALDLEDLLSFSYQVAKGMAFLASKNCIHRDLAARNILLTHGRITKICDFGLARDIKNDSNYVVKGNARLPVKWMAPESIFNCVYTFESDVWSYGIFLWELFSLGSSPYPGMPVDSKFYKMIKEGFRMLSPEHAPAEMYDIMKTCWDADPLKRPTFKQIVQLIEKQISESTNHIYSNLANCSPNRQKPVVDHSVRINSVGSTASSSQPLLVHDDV

Structure (SMILES) | solubility [1] [µg/mL] | Papp A→B at 120 min, 10 μM [2] [×10⁻⁶ cm/s] | efflux ratio at 120 min, 10 μM [2] | IC50 [3] [nM] | ABL AVG % Activity at 1.0E−06 [3] [%] | ABL AVG % Activity at 1.0E−07 [3] [%] | ABL AVG % Activity at 1.0E−08 [3] [%] | ABL AVG % Activity at 1.0E−09 [3] [%] | ABL AVG % Activity at 1.0E−10 [3] [%] | ABL AVG % Activity at 3.0E−06 [3] [%] | ABL AVG % Activity at 3.0E−07 [3] [%] | ABL AVG % Activity at 3.0E−08 [3] [%] | ABL AVG % Activity at 3.0E−09 [3] [%] | ABL AVG % Activity at 3.0E−10 [3] [%] | IC50 [4] [nM] | PDGFR AVG % Activity at 1.0E−06 [4] [%] | PDGFR AVG % Activity at 1.0E−07 [4] [%] | PDGFR AVG % Activity at 1.0E−08 [4] [%] | PDGFR AVG % Activity at 1.0E−09 [4] [%] | PDGFR AVG % Activity at 1.0E−10 [4] [%] | other results
COCCOCCOCCOCCOCCNCc1ccc(C(=O)Nc2ccc(C)c(Nc3nccc(-c4cccnc4)n3)c2)cc1 [mPEG5-N-Imatinib] | 3400 (≈ 5.27 mM) | 0.05 ± 0.02 | 560 | ≥ 3000 | 74 | 86 | 95 | 97 | 96 | 66 | 80 | 92 | 96 | 96 | 220 | 9 | 62 | 94 | 90 | 92 | PDGFR AVG % Activity at 3.0E−06 [4]: 0%; PDGFR AVG % Activity at 3.0E−07 [4]: 37%; PDGFR AVG % Activity at 3.0E−08 [4]: 85%; PDGFR AVG % Activity at 3.0E−09 [4]: 100%; PDGFR AVG % Activity at 3.0E−10 [4]: 92%; IC50 [5]: 440 nM; C-kit AVG % Activity at 1.0E−05 [5]: 1%; C-kit AVG % Activity at 1.0E−06 [5]: 28%; C-kit AVG % Activity at 1.0E−07 [5]: 82%; C-kit AVG % Activity at 1.0E−08 [5]: 92%; C-kit AVG % Activity at 3.0E−05 [5]: 0%; C-kit AVG % Activity at 3.0E−06 [5]: 9%; C-kit AVG % Activity at 3.0E−07 [5]: 59%; C-kit AVG % Activity at 3.0E−08 [5]: 91%; C-kit AVG % Activity at 3.0E−09 [5]: 96%
COCCOCCOCCOCCOCCOCCOCCN1CCN(Cc2ccc(C(=O)Nc3ccc(C)c(Nc4nccc(-c5cccnc5)n4)c3)cc2)CC1 [mPEG7-N′-Imatinib] | 3000 (≈ 3.74 mM) | 0.3 ± 0.01 | 75.7 | ≥ 3000 | 69 | 83 | 92 | 96 | 96 | 52 | 78 | 88 | 96 | 97 | 310 | 18 | 76 | 91 | 98 | 95 | PDGFR AVG % Activity at 3.0E−06 [4]: 0%; PDGFR AVG % Activity at 3.0E−07 [4]: 43%; PDGFR AVG % Activity at 3.0E−08 [4]: 91%; PDGFR AVG % Activity at 3.0E−09 [4]: 93%; PDGFR AVG % Activity at 3.0E−10 [4]: 100%; IC50 [5]: 2500 nM; C-kit AVG % Activity at 1.0E−05 [5]: 16%; C-kit AVG % Activity at 1.0E−06 [5]: 69%; C-kit AVG % Activity at 1.0E−07 [5]: 91%; C-kit AVG % Activity at 1.0E−08 [5]: 95%; C-kit AVG % Activity at 3.0E−05 [5]: 4%; C-kit AVG % Activity at 3.0E−06 [5]: 44%; C-kit AVG % Activity at 3.0E−07 [5]: 84%; C-kit AVG % Activity at 3.0E−08 [5]: 97%; C-kit AVG % Activity at 3.0E−09 [5]: 95%
COCCOCCOCCOCCOCCOCCOCCOCCOCCNCc1ccc(C(=O)Nc2ccc(C)c(Nc3nccc(-c4cccnc4)n3)c2)cc1 [mPEG9-N-Imatinib] | 2700 (≈ 3.29 mM) | 0.01 ± 0.004 | 482 | ≥ 3000 | 77 | 89 | 97 | 96 | 96 | 70 | 85 | 93 | 96 | 96 | 290 | 11 | 65 | 83 | 78 | 89 | PDGFR AVG % Activity at 3.0E−06 [4]: 0%; PDGFR AVG % Activity at 3.0E−07 [4]: 38%; PDGFR AVG % Activity at 3.0E−08 [4]: 75%; PDGFR AVG % Activity at 3.0E−09 [4]: 100%; PDGFR AVG % Activity at 3.0E−10 [4]: 86%; IC50 [5]: 1600 nM; C-kit AVG % Activity at 1.0E−05 [5]: 9%; C-kit AVG % Activity at 1.0E−06 [5]: 62%; C-kit AVG % Activity at 1.0E−07 [5]: 93%; C-kit AVG % Activity at 1.0E−08 [5]: 98%; C-kit AVG % Activity at 3.0E−05 [5]: 2%; C-kit AVG % Activity at 3.0E−06 [5]: 32%; C-kit AVG % Activity at 3.0E−07 [5]: 81%; C-kit AVG % Activity at 3.0E−08 [5]: 99%; C-kit AVG % Activity at 3.0E−09 [5]: 99%
